Measurements published in paper PMC10318143, “Optimized bisubstrate inhibitors for the actin N-terminal acetyltransferase NAA80” (Frontiers in Chemistry, 2023).
*1 amine or outer side, *2 acyl side, *3 side chain or, on linkers, in order; H or OH if unused. Where a SMILES comes first, the peptide text is derived from it. [ ]: non-standard residue; d: D form. The star is where a group is joined. Pantoyl(4-O-3'-P-ADP) = CC(C)(COP(=O)(O)OP(=O)(O)OC[C@H]1O[C@@H](n2cnc3c(N)ncnc32)[C@H](O)[C@@H]1OP(=O)(O)O)[C@@H](O)C(=O)*; NHCH2CH2SCH2CO = O=C(CSCCN[*:1])[*:2]; βAla = NCCC(=O)O

biological target: T1, MBP-hNAA80 (Homo sapiens, UniProt Q93015); assay: In vitro DTNB Nt-acetyltransferase inhibitor assay; assay type: biochemical; details: 300 μM Ac-CoA, 300 μM substrate peptide, Tris pH 8.5, triplicates, ± standard deviation
T1 construct: made in house; host or cells: Escherichia coli BL21 star
T1 sequence (Q93015 1-286): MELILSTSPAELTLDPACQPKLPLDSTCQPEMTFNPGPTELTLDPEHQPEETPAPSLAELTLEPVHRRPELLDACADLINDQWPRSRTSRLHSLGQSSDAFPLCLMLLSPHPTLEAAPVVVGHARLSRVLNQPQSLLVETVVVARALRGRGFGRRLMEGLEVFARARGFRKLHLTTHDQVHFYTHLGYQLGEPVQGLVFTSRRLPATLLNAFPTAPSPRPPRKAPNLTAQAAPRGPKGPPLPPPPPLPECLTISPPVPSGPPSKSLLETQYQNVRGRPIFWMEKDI
Method: The enzymatic activity of MBP-hNAA80 was measured using a 5,5′-dithiobis-(2-nitrobenzoic acid, DTNB) assay as described previously by Foyn et al. ([Foyn et al., 2017]) and Drazic et al. ([Drazic et al., 2018]) Briefly, the thiol group exposed in the enzymatic product CoA cleaves DTNB and produces 2-nitro-5-thiobenzonate (TNB^−) which ionize to TNB^2- in neutral or alkaline pH and is readily quantified by measuring the absorbance at 412 nm.
An in vitro DTNB assay with enzyme (10–600 nM), 300 μM Ac-CoA, 300 μM substrate peptide, acetylation buffer (Tris, pH 8.5), and at least nine different inhibitor concentrations ranging from 0 to 500 μM was used to calculate the IC50 value for each bisubstrate inhibitor applied in the assay. The reaction was carried out as previously described ([Drazic et al., 2018]; [Goris et al., 2018]), and within a timeframe of 15–50 min. All measurements were performed in triplicates.

Compound | IC50 [nM]
CC[C@H](C)[C@H](NC(=O)[C@H](CCC(=O)O)NC(=O)[C@H](CC(=O)O)NC(=O)[C@H](CC(=O)O)NC(=O)CSCCNC(=O)CCNC(=O)[C@H](O)C(C)(C)COP(=O)(O)OP(=O)(O)OC[C@H]1O[C@@H](n2cnc3c(N)ncnc32)[C@H](O)[C@@H]1OP(=O)(O)O)C(N)=O [CoA-DDEI-NH2, CoA-Ac-DDEI-NH2] ({Pantoyl(4-O-3'-P-ADP)-βAla}-[NHCH2CH2SCH2CO]DDEI-NH2) | 2670 ± 670
CC[C@H](C)[C@H](NC(=O)[C@H](CCC(=O)O)NC(=O)[C@H](CCC(=O)O)NC(=O)[C@H](CC(=O)O)NC(=O)CSCCNC(=O)CCNC(=O)[C@H](O)C(C)(C)COP(=O)(O)OP(=O)(O)OC[C@H]1O[C@@H](n2cnc3c(N)ncnc32)[C@H](O)[C@@H]1OP(=O)(O)O)C(N)=O [CoA-DEEI-NH2, CoA-Ac-DEEI-NH2] ({Pantoyl(4-O-3'-P-ADP)-βAla}-[NHCH2CH2SCH2CO]DEEI-NH2) | 1220 ± 330
CC(C)C[C@H](NC(=O)[C@H](CCC(=O)O)NC(=O)[C@H](CCC(=O)O)NC(=O)[C@H](CC(=O)O)NC(=O)CSCCNC(=O)CCNC(=O)[C@H](O)C(C)(C)COP(=O)(O)OP(=O)(O)OC[C@H]1O[C@@H](n2cnc3c(N)ncnc32)[C@H](O)[C@@H]1OP(=O)(O)O)C(N)=O [CoA-DEEL-NH2, CoA-Ac-DEEL-NH2] ({Pantoyl(4-O-3'-P-ADP)-βAla}-[NHCH2CH2SCH2CO]DEEL-NH2) | 4730 ± 1430
CC[C@H](C)[C@H](NC(=O)[C@H](CC(=O)O)NC(=O)[C@H](CC(=O)O)NC(=O)[C@H](CCC(=O)O)NC(=O)CSCCNC(=O)CCNC(=O)[C@H](O)C(C)(C)COP(=O)(O)OP(=O)(O)OC[C@H]1O[C@@H](n2cnc3c(N)ncnc32)[C@H](O)[C@@H]1OP(=O)(O)O)C(N)=O [CoA-EDDI-NH2, CoA-Ac-EDDI-NH2] ({Pantoyl(4-O-3'-P-ADP)-βAla}-[NHCH2CH2SCH2CO]EDDI-NH2) | 120 ± 50
CC[C@H](C)[C@H](NC(=O)[C@H](CCC(=O)O)NC(=O)[C@H](CC(=O)O)NC(=O)[C@H](CCC(=O)O)NC(=O)CSCCNC(=O)CCNC(=O)[C@H](O)C(C)(C)COP(=O)(O)OP(=O)(O)OC[C@H]1O[C@@H](n2cnc3c(N)ncnc32)[C@H](O)[C@@H]1OP(=O)(O)O)C(N)=O [CoA-EDEI-NH2, CoA-Ac-EDEI-NH2] ({Pantoyl(4-O-3'-P-ADP)-βAla}-[NHCH2CH2SCH2CO]EDEI-NH2) | 760 ± 180
CC(C)C[C@H](NC(=O)[C@H](CCC(=O)O)NC(=O)[C@H](CC(=O)O)NC(=O)[C@H](CCC(=O)O)NC(=O)CSCCNC(=O)CCNC(=O)[C@H](O)C(C)(C)COP(=O)(O)OP(=O)(O)OC[C@H]1O[C@@H](n2cnc3c(N)ncnc32)[C@H](O)[C@@H]1OP(=O)(O)O)C(N)=O [CoA-EDEL-NH2, CoA-Ac-EDEL-NH2] ({Pantoyl(4-O-3'-P-ADP)-βAla}-[NHCH2CH2SCH2CO]EDEL-NH2) | 150 ± 20
CC(C)C[C@H](NC(=O)[C@H](CCC(N)=O)NC(=O)[C@H](CC(=O)O)NC(=O)[C@H](CCC(=O)O)NC(=O)CSCCNC(=O)CCNC(=O)[C@H](O)C(C)(C)COP(=O)(O)OP(=O)(O)OC[C@H]1O[C@@H](n2cnc3c(N)ncnc32)[C@H](O)[C@@H]1OP(=O)(O)O)C(N)=O [CoA-EDQL-NH2, CoA-Ac-EDQL-NH2] ({Pantoyl(4-O-3'-P-ADP)-βAla}-[NHCH2CH2SCH2CO]EDQL-NH2) | 850 ± 50
CC[C@H](C)[C@H](NC(=O)[C@H](CC(=O)O)NC(=O)[C@H](CCC(=O)O)NC(=O)[C@H](CCC(=O)O)NC(=O)CSCCNC(=O)CCNC(=O)[C@H](O)C(C)(C)COP(=O)(O)OP(=O)(O)OC[C@H]1O[C@@H](n2cnc3c(N)ncnc32)[C@H](O)[C@@H]1OP(=O)(O)O)C(N)=O [CoA-EEDI-NH2, CoA-Ac-EEDI-NH2] ({Pantoyl(4-O-3'-P-ADP)-βAla}-[NHCH2CH2SCH2CO]EEDI-NH2) | 170 ± 40
CC(C)C[C@H](NC(=O)[C@H](CC(=O)O)NC(=O)[C@H](CCC(=O)O)NC(=O)[C@H](CCC(=O)O)NC(=O)CSCCNC(=O)CCNC(=O)[C@H](O)C(C)(C)COP(=O)(O)OP(=O)(O)OC[C@H]1O[C@@H](n2cnc3c(N)ncnc32)[C@H](O)[C@@H]1OP(=O)(O)O)C(N)=O [CoA-EEDL-NH2, CoA-Ac-EEDL-NH2] ({Pantoyl(4-O-3'-P-ADP)-βAla}-[NHCH2CH2SCH2CO]EEDL-NH2) | 1760 ± 520
CC(C)C[C@H](NC(=O)[C@H](CCC(=O)O)NC(=O)[C@H](CCC(=O)O)NC(=O)[C@H](CCC(=O)O)NC(=O)CSCCNC(=O)CCNC(=O)[C@H](O)C(C)(C)COP(=O)(O)OP(=O)(O)OC[C@H]1O[C@@H](n2cnc3c(N)ncnc32)[C@H](O)[C@@H]1OP(=O)(O)O)C(N)=O [CoA-EEEL-NH2, CoA-Ac-EEEL-NH2] ({Pantoyl(4-O-3'-P-ADP)-βAla}-[NHCH2CH2SCH2CO]EEEL-NH2) | 1160 ± 120
CC(C)C[C@H](NC(=O)[C@H](CCC(=O)O)NC(=O)[C@H](CO)NC(=O)[C@H](CCC(=O)O)NC(=O)CSCCNC(=O)CCNC(=O)[C@H](O)C(C)(C)COP(=O)(O)OP(=O)(O)OC[C@H]1O[C@@H](n2cnc3c(N)ncnc32)[C@H](O)[C@@H]1OP(=O)(O)O)C(N)=O [CoA-ESEL-NH2, CoA-Ac-ESEL-NH2] ({Pantoyl(4-O-3'-P-ADP)-βAla}-[NHCH2CH2SCH2CO]ESEL-NH2) | 11500 ± 3230
CC(C)C[C@H](NC(=O)[C@H](CCC(=O)O)NC(=O)[C@H](CC(=O)O)NC(=O)[C@@H]1CCCN1C(=O)CSCCNC(=O)CCNC(=O)[C@H](O)C(C)(C)COP(=O)(O)OP(=O)(O)OC[C@H]1O[C@@H](n2cnc3c(N)ncnc32)[C@H](O)[C@@H]1OP(=O)(O)O)C(N)=O [CoA-PDEL-NH2, CoA-Ac-PDEL-NH2] ({Pantoyl(4-O-3'-P-ADP)-βAla}-[NHCH2CH2SCH2CO]PDEL-NH2) | 13400 ± 2240

biological target: T1, MBP-hNAA80; assay: not given; set-up: method as in Goris et al., 2018; details: DTNB assay; ± standard deviation; ref Goris et al., 2018; cited from earlier work

Compound | IC50 [nM]
CC[C@H](C)[C@H](NC(=O)[C@H](CC(=O)O)NC(=O)[C@H](CC(=O)O)NC(=O)[C@H](CC(=O)O)NC(=O)CSCCNC(=O)CCNC(=O)[C@H](O)C(C)(C)COP(=O)(O)OP(=O)(O)OC[C@H]1O[C@@H](n2cnc3c(N)ncnc32)[C@H](O)[C@@H]1OP(=O)(O)O)C(N)=O [CoA-DDDI-NH2, CoA-Ac-DDDI-NH2] ({Pantoyl(4-O-3'-P-ADP)-βAla}-[NHCH2CH2SCH2CO]DDDI-NH2) | 380 ± 100
CoA-EEEI-NH2: previously reported bisubstrate inhibitor: coenzyme A conjugated via acetyl linker to tetrapeptide amide EEEI (γ-actin N-terminus) (not fully specified; N-terminal amine acylated with acetyl linker thioether-bonded to coenzyme A sulfur (CoA-S-CH2-CO-); C-terminal amide) | 1160 ± 110
CoA-MDEL-NH2: previously reported bisubstrate inhibitor: coenzyme A conjugated via acetyl linker to tetrapeptide amide MDEL (not fully specified; N-terminal amine acylated with acetyl linker thioether-bonded to coenzyme A sulfur (CoA-S-CH2-CO-); C-terminal amide) | 1260 ± 100
